In brackets after ≈: the same amount, converted by molar mass.
Assays:
Format in all cases: functional
Escherichia coli = experiment: Antibacterial activity against Escherichia coli ATCC 25922 after 20 to 24 hrs by two-fold microdilution method
[1] = test system: Staphylococcus haemolyticus; experiment: Antibacterial activity against Staphylococcus haemolyticus CICC 10373 after 20 to 24 hrs by two-fold microdilution method
Streptococcus pneumoniae = experiment: Antibacterial activity against Streptococcus pneumoniae ATCC 6305 after 20 to 24 hrs by two-fold microdilution method
[2] = test system: Staphylococcus epidermidis; experiment: Antibacterial activity against Staphylococcus epidermidis ATCC 12228 after 20 to 24 hrs by two-fold microdilution method
Enterococcus faecalis = experiment: Antibacterial activity against Enterococcus faecalis ATCC 29212 after 20 to 24 hrs by two-fold microdilution method
Staphylococcus aureus [3] = experiment: Antibacterial activity against methicillin-resistant Staphylococcus aureus 215073 clinical isolate after 20 to 24 hrs by two-fold microdilution method
Staphylococcus aureus [4] = experiment: Antibacterial activity against methicillin-resistant Staphylococcus aureus 122045 clinical isolate after 20 to 24 hrs by two-fold microdilution method
Staphylococcus aureus [5] = experiment: Antibacterial activity against methicillin-resistant Staphylococcus aureus 219236 clinical isolate after 20 to 24 hrs by two-fold microdilution method
Staphylococcus aureus [6] = experiment: Antibacterial activity against methicillin-resistant Staphylococcus aureus 216054 clinical isolate after 20 to 24 hrs by two-fold microdilution method
Staphylococcus aureus [7] = experiment: Antibacterial activity against methicillin-resistant Staphylococcus aureus 110910-2 clinical isolate after 20 to 24 hrs by two-fold microdilution method
Staphylococcus aureus [8] = experiment: Antibacterial activity against methicillin-resistant Staphylococcus aureus 110414 clinical isolate after 20 to 24 hrs by two-fold microdilution method
Staphylococcus aureus [9] = experiment: Antibacterial activity against methicillin-resistant Staphylococcus aureus 10281-2 clinical isolate after 20 to 24 hrs by two-fold microdilution method
Staphylococcus aureus [10] = experiment: Antibacterial activity against methicillin-resistant Staphylococcus aureus GLH14 clinical isolate after 20 to 24 hrs by two-fold microdilution method
Staphylococcus aureus [11] = experiment: Antibacterial activity against methicillin-resistant Staphylococcus aureus 1215028 clinical isolate after 20 to 24 hrs by two-fold microdilution method
Staphylococcus aureus [12] = experiment: Antibacterial activity against methicillin-resistant Staphylococcus aureus 122710-2 clinical isolate after 20 to 24 hrs by two-fold microdilution method
Staphylococcus aureus [13] = experiment: Antibacterial activity against methicillin-resistant Staphylococcus aureus 122820-2 clinical isolate after 20 to 24 hrs by two-fold microdilution method
Staphylococcus aureus [14] = experiment: Antibacterial activity against methicillin-resistant Staphylococcus aureus 11819 clinical isolate after 20 to 24 hrs by two-fold microdilution method
Staphylococcus aureus [15] = experiment: Antibacterial activity against methicillin-resistant Staphylococcus aureus 12308 clinical isolate after 20 to 24 hrs by two-fold microdilution method
Staphylococcus aureus [16] = experiment: Antibacterial activity against methicillin-resistant Staphylococcus aureus 130031 clinical isolate after 20 to 24 hrs by two-fold microdilution method
Staphylococcus aureus [17] = experiment: Antibacterial activity against methicillin-resistant Staphylococcus aureus 221022 clinical isolate after 20 to 24 hrs by two-fold microdilution method
Staphylococcus aureus [18] = experiment: Antibacterial activity against methicillin-resistant Staphylococcus aureus 221014 clinical isolate after 20 to 24 hrs by two-fold microdilution method
Staphylococcus aureus [19] = experiment: Antibacterial activity against methicillin-resistant Staphylococcus aureus 316031 clinical isolate after 20 to 24 hrs by two-fold microdilution method
Staphylococcus aureus [20] = experiment: Antibacterial activity against methicillin-resistant Staphylococcus aureus 3250299 clinical isolate after 20 to 24 hrs by two-fold microdilution method
Staphylococcus aureus [21] = experiment: Antibacterial activity against methicillin-resistant Staphylococcus aureus 519238 clinical isolate after 20 to 24 hrs by two-fold microdilution method
Staphylococcus aureus [22] = experiment: Antibacterial activity against methicillin-resistant Staphylococcus aureus 519030 clinical isolate after 20 to 24 hrs by two-fold microdilution method
Staphylococcus aureus [23] = experiment: Antibacterial activity against methicillin-resistant Staphylococcus aureus 523005 clinical isolate after 20 to 24 hrs by two-fold microdilution method
Staphylococcus aureus [24] = experiment: Antibacterial activity against methicillin-resistant Staphylococcus aureus 531026 clinical isolate after 20 to 24 hrs by two-fold microdilution method
Staphylococcus aureus [25] = experiment: Antibacterial activity against methicillin-resistant Staphylococcus aureus 614019 clinical isolate after 20 to 24 hrs by two-fold microdilution method
Staphylococcus aureus [26] = experiment: Antibacterial activity against methicillin-resistant Staphylococcus aureus 921026 clinical isolate after 20 to 24 hrs by two-fold microdilution method
Staphylococcus aureus [27] = experiment: Antibacterial activity against methicillin-resistant Staphylococcus aureus 112106 clinical isolate after 20 to 24 hrs by two-fold microdilution method
Staphylococcus aureus [28] = experiment: Antibacterial activity against methicillin-resistant Staphylococcus aureus 822030 clinical isolate after 20 to 24 hrs by two-fold microdilution method
Staphylococcus aureus [29] = experiment: Antibacterial activity against methicillin-resistant Staphylococcus aureus 831024 clinical isolate after 20 to 24 hrs by two-fold microdilution method
Staphylococcus aureus [30] = experiment: Antibacterial activity against methicillin-resistant Staphylococcus aureus 1012039 clinical isolate after 20 to 24 hrs by two-fold microdilution method
Staphylococcus aureus [31] = experiment: Antibacterial activity against methicillin-resistant Staphylococcus aureus 1019240 clinical isolate after 20 to 24 hrs by two-fold microdilution method
Staphylococcus aureus [32] = experiment: Antibacterial activity against methicillin-resistant Staphylococcus aureus 1023043 clinical isolate after 20 to 24 hrs by two-fold microdilution method
Staphylococcus aureus [33] = experiment: Antibacterial activity against methicillin-resistant Staphylococcus aureus 1101016 clinical isolate after 20 to 24 hrs by two-fold microdilution method
Staphylococcus aureus [34] = experiment: Antibacterial activity against methicillin-resistant Staphylococcus aureus 1107027 clinical isolate after 20 to 24 hrs by two-fold microdilution method
Staphylococcus aureus [35] = experiment: Antibacterial activity against methicillin-resistant Staphylococcus aureus 1106003 clinical isolate after 20 to 24 hrs by two-fold microdilution method
Staphylococcus aureus [36] = experiment: Antibacterial activity against methicillin-resistant Staphylococcus aureus 1108204 clinical isolate after 20 to 24 hrs by two-fold microdilution method
Staphylococcus aureus [37] = experiment: Antibacterial activity against methicillin-resistant Staphylococcus aureus 1113041 clinical isolate after 20 to 24 hrs by two-fold microdilution method
Staphylococcus aureus [38] = experiment: Antibacterial activity against methicillin-resistant Staphylococcus aureus 1128040 clinical isolate after 20 to 24 hrs by two-fold microdilution method
Staphylococcus aureus [39] = experiment: Antibacterial activity against methicillin-resistant Staphylococcus aureus 109244 clinical isolate after 20 to 24 hrs by two-fold microdilution method
Staphylococcus aureus [40] = experiment: Antibacterial activity against methicillin-resistant Staphylococcus aureus 112047 clinical isolate after 20 to 24 hrs by two-fold microdilution method
Staphylococcus aureus [41] = experiment: Antibacterial activity against methicillin-resistant Staphylococcus aureus 118038 clinical isolate after 20 to 24 hrs by two-fold microdilution method
Staphylococcus aureus [42] = experiment: Antibacterial activity against methicillin-resistant Staphylococcus aureus 121026 clinical isolate after 20 to 24 hrs by two-fold microdilution method
Staphylococcus aureus [43] = experiment: Antibacterial activity against methicillin-resistant Staphylococcus aureus 125025 clinical isolate after 20 to 24 hrs by two-fold microdilution method
Staphylococcus aureus [44] = experiment: Antibacterial activity against methicillin-resistant Staphylococcus aureus 304243 clinical isolate after 20 to 24 hrs by two-fold microdilution method

SMILES: O=C1c2cccnc2C(=O)c2c1c(C(=O)OCCCCCN1CCOCC1)c1ccc(Br)cn21
- MIC (Escherichia coli): 8 µg/mL (≈ 15.2 µM)
- MIC [1]: 1 µg/mL (≈ 1.9 µM)
- MIC (Streptococcus pneumoniae): 2 µg/mL (≈ 3.8 µM)
- MIC [2]: ≤ 0.0078 µg/mL
- MIC (Enterococcus faecalis): 0.25 µg/mL (≈ 0.475 µM)
- MIC (Staphylococcus aureus [3]): ≤ 0.0078 µg/mL
- MIC (Staphylococcus aureus [4]): 0.063 µg/mL (≈ 0.12 µM)
- MIC (Staphylococcus aureus [5]): 0.031 µg/mL (≈ 0.0589 µM)
- MIC (Staphylococcus aureus [6]): 0.063 µg/mL (≈ 0.12 µM)
- MIC (Staphylococcus aureus [7]): ≤ 0.0078 µg/mL
- MIC (Staphylococcus aureus [8]): 0.031 µg/mL (≈ 0.0589 µM)
- MIC (Staphylococcus aureus [9]): ≤ 0.0078 µg/mL
- MIC (Staphylococcus aureus [10]): 0.031 µg/mL (≈ 0.0589 µM)
- MIC (Staphylococcus aureus [11]): ≤ 0.0078 µg/mL
- MIC (Staphylococcus aureus [12]): ≤ 0.0078 µg/mL
- MIC (Staphylococcus aureus [13]): 0.031 µg/mL (≈ 0.0589 µM)
- MIC (Staphylococcus aureus [14]): ≤ 0.0078 µg/mL
- MIC (Staphylococcus aureus [15]): ≤ 0.0078 µg/mL
- MIC (Staphylococcus aureus [16]): 0.063 µg/mL (≈ 0.12 µM)
- MIC (Staphylococcus aureus [17]): 0.031 µg/mL (≈ 0.0589 µM)
- MIC (Staphylococcus aureus [18]): 0.031 µg/mL (≈ 0.0589 µM)
- MIC (Staphylococcus aureus [19]): 0.031 µg/mL (≈ 0.0589 µM)
- MIC (Staphylococcus aureus [20]): 0.031 µg/mL (≈ 0.0589 µM)
- MIC (Staphylococcus aureus [21]): 0.125 µg/mL (≈ 0.237 µM)
- MIC (Staphylococcus aureus [22]): 0.063 µg/mL (≈ 0.12 µM)
- MIC (Staphylococcus aureus [23]): 0.031 µg/mL (≈ 0.0589 µM)
- MIC (Staphylococcus aureus [24]): ≤ 0.0078 µg/mL
- MIC (Staphylococcus aureus [25]): 0.031 µg/mL (≈ 0.0589 µM)
- MIC (Staphylococcus aureus [26]): ≤ 0.0078 µg/mL
- MIC (Staphylococcus aureus [27]): 0.031 µg/mL (≈ 0.0589 µM)
- MIC (Staphylococcus aureus [28]): 0.031 µg/mL (≈ 0.0589 µM)
- MIC (Staphylococcus aureus [29]): 0.063 µg/mL (≈ 0.12 µM)
- MIC (Staphylococcus aureus [30]): 0.125 µg/mL (≈ 0.237 µM)
- MIC (Staphylococcus aureus [31]): 0.031 µg/mL (≈ 0.0589 µM)
- MIC (Staphylococcus aureus [32]): 0.031 µg/mL (≈ 0.0589 µM)
- MIC (Staphylococcus aureus [33]): 0.031 µg/mL (≈ 0.0589 µM)
- MIC (Staphylococcus aureus [34]): ≤ 0.0078 µg/mL
- MIC (Staphylococcus aureus [35]): 16 µg/mL (≈ 30.4 µM)
- MIC (Staphylococcus aureus [36]): 0.25 µg/mL (≈ 0.475 µM)
- MIC (Staphylococcus aureus [37]): ≤ 0.0078 µg/mL
- MIC (Staphylococcus aureus [38]): ≤ 0.0078 µg/mL
- MIC (Staphylococcus aureus [39]): 0.031 µg/mL (≈ 0.0589 µM)
- MIC (Staphylococcus aureus [40]): 0.031 µg/mL (≈ 0.0589 µM)
- MIC (Staphylococcus aureus [41]): ≤ 0.0078 µg/mL
- MIC (Staphylococcus aureus [42]): ≤ 0.0078 µg/mL
- MIC (Staphylococcus aureus [43]): ≤ 0.0078 µg/mL
- MIC (Staphylococcus aureus [44]): 0.031 µg/mL (≈ 0.0589 µM)

Reference: ChEMBL document CHEMBL4004803, “Syntheses and antibacterial activity of soluble 9-bromo substituted indolizinoquinoline-5,12-dione derivatives” (Eur J Med Chem, 2017)
